Assay results: PubChem BioAssay AID248 (DTP/NCI, 2004)
Values joined by “and” are separate entries in the source; they are usually repeats but may differ in a detail not shown here. Equal values may be shown once. Toxic doses and inconclusive results are not listed. No stated cut-off is given here; in the data, active means T/C of 150% or more; inactive means T/C below 125%.

Tested on: L1210 leukemia ip in BDF1 mice, survival T/C
Test: NCI In Vivo Anticancer Drug Screen. Data for tumor model L1210 Leukemia (intraperitoneal) in B6D2F1 (BDF1) mice
Settings: endpoint: mean survival time, higher = longer survival
Method in brief: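 Transplanted-tumor mice were given test agent; controls received vehicle only. Survival readings from the two groups were divided (treated over control).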

[1] = dose: 100.0 mg/kg/injection, schedule: Q01DX001 (ip), vehicle: saline
[2] = dose: 200.0 mg/kg/injection, schedule: Q01DX001 (ip), vehicle: saline
[3] = dose: 400.0 mg/kg/injection, schedule: Q01DX001 (ip), vehicle: saline
[4] = dose: 50.0 mg/kg/injection, schedule: Q01DX009 (ip), vehicle: saline with Tween-80
[5] = dose: 100.0 mg/kg/injection, schedule: Q01DX009 (ip), vehicle: saline with Tween-80
[6] = dose: 200.0 mg/kg/injection, schedule: Q01DX009 (ip), vehicle: saline with Tween-80
[7] = dose: 100.0 mg/kg/injection, schedule: Q01DX001 (ip), vehicle: saline with Tween-80
[8] = dose: 200.0 mg/kg/injection, schedule: Q01DX001 (ip), vehicle: saline with Tween-80
[9] = dose: 400.0 mg/kg/injection, schedule: Q01DX001 (ip), vehicle: saline with Tween-80
[10] = dose: 400.0 mg/kg/injection, schedule: Q01DX009 (ip), vehicle: saline with Tween-80

Measured: T/C

CCCCCCCCOC(=O)c1[nH]cnc1/N=N\N(C)C
inactive: dose: 45.0 mg/kg/injection, schedule: Q01DX015 (ip), vehicle: other 103 % of control | dose: 88.0 mg/kg/injection, schedule: Q01DX001 (ip), vehicle: other 96 % of control | dose: 100.0 mg/kg/injection, schedule: Q01DX001 (ip), vehicle: other 102 % of control | dose: 133.0 mg/kg/injection, schedule: Q01DX001 (ip), vehicle: other 88 % of control | dose: 133.0 mg/kg/injection, schedule: Q01DX009 (ip), vehicle: other 101 % of control | dose: 180.0 mg/kg/injection, schedule: Q01DX015 (ip), vehicle: other 122 % of control | dose: 200.0 mg/kg/injection, schedule: Q01DX001 (ip), vehicle: other 109 % of control and 90 % of control | dose: 200.0 mg/kg/injection, schedule: Q01DX009 (ip), vehicle: other 95 % of control | dose: 300.0 mg/kg/injection, schedule: Q01DX001 (ip), vehicle: other 100 % of control | dose: 300.0 mg/kg/injection, schedule: Q01DX009 (ip), vehicle: other 100 % of control | dose: 400.0 mg/kg/injection, schedule: Q01DX001 (ip), vehicle: other 104 % of control | dose: 450.0 mg/kg/injection, schedule: Q01DX009 (ip), vehicle: other 97 % of control

COCP(=O)(OC)OC
inactive: dose: 100.0 mg/kg/injection, schedule: Q04DX003 (ip), vehicle: saline 116 % of control | dose: 200.0 mg/kg/injection, schedule: Q04DX003 (ip), vehicle: saline 94 % of control | dose: 400.0 mg/kg/injection, schedule: Q04DX003 (ip), vehicle: saline 100 % of control

CCC[CH2][Sn]1([CH2]CCC)[O]C(=O)c2ccc(C(=O)O)cc2C(=O)[O]1
inactive: dose: 5.0 mg/kg/injection, schedule: Q01DX001 (ip), vehicle: saline 105 % of control

CC1(N)COP(=O)(NCc2ccccc2)OC1 (configuration not stated)
inactive: [1] 95 % of control | [2] 103 % of control | [3] 103 % of control

CCCCCCCC(=O)N(CC(C)C)CC(C)C
inactive: dose: 100.0 mg/kg/injection, schedule: Q01DX001 (ip), vehicle: carboxymethylcellulose (CMC) 102 % of control | dose: 100.0 mg/kg/injection, schedule: Q01DX009 (ip), vehicle: carboxymethylcellulose (CMC) 97 % of control | dose: 100.0 mg/kg/injection, schedule: Q04DX002 (ip), vehicle: carboxymethylcellulose (CMC) 101 % of control and 102 % of control | dose: 100.0 mg/kg/injection, schedule: Q04DX003 (ip), vehicle: carboxymethylcellulose (CMC) 97 % of control | dose: 200.0 mg/kg/injection, schedule: Q01DX001 (ip), vehicle: carboxymethylcellulose (CMC) 96 % of control | dose: 200.0 mg/kg/injection, schedule: Q01DX009 (ip), vehicle: carboxymethylcellulose (CMC) 93 % of control and 98 % of control | dose: 200.0 mg/kg/injection, schedule: Q04DX002 (ip), vehicle: carboxymethylcellulose (CMC) 97 % of control and 102 % of control | dose: 200.0 mg/kg/injection, schedule: Q04DX003 (ip), vehicle: carboxymethylcellulose (CMC) 97 % of control | dose: 400.0 mg/kg/injection, schedule: Q01DX001 (ip), vehicle: carboxymethylcellulose (CMC) 91 % of control | dose: 400.0 mg/kg/injection, schedule: Q04DX002 (ip), vehicle: carboxymethylcellulose (CMC) 94 % of control | dose: 400.0 mg/kg/injection, schedule: Q04DX003 (ip), vehicle: carboxymethylcellulose (CMC) 90 % of control

O=S(=O)(NC(CCl)=NC1CCCCC1)c1ccccc1
inactive: dose: 100.0 mg/kg/injection, schedule: Q04DX002 (ip), vehicle: Klucel (hydroxypropylcellulose) (HPC) 89 % of control | dose: 200.0 mg/kg/injection, schedule: Q04DX002 (ip), vehicle: Klucel (hydroxypropylcellulose) (HPC) 100 % of control | dose: 400.0 mg/kg/injection, schedule: Q04DX002 (ip), vehicle: Klucel (hydroxypropylcellulose) (HPC) 104 % of control

Cc1cccc(C2=N/C(=C\c3cccc4ccccc34)C(=O)O2)c1
inactive: [4] 102 % of control | [5] 91 % of control | [6] 91 % of control

CC(=O)c1cc([N+](=O)[O-])ccc1O
inactive: [1] 90 % of control | [2] 97 % of control | [3] 90 % of control

CCC(C)(O)C#N (configuration not stated)
inactive: dose: 2.2 mg/kg/injection, schedule: Q01DX Z (ip), vehicle: saline 104 % of control | dose: 3.3 mg/kg/injection, schedule: Q01DX Z (ip), vehicle: saline 94 % of control | dose: 5.0 mg/kg/injection, schedule: Q01DX Z (ip), vehicle: saline 98 % of control

C=CC1CN2CCC1CC2C(=O)c1ccnc2ccccc12 (configuration not stated)
inactive: dose: 50.0 mg/kg/injection, schedule: Q01DX001 (ip), vehicle: saline 101 % of control | [1] 104 % of control | [2] 106 % of control | [3] 98 % of control

Cc1csc(NC(=O)C2C3CCC(O3)C2C(=O)O)n1 (configuration not stated)
inactive: dose: 5.0 mg/kg/injection, schedule: Q01DX001 (ip), vehicle: carboxymethylcellulose (CMC) 95 % of control | dose: 10.0 mg/kg/injection, schedule: Q01DX001 (ip), vehicle: carboxymethylcellulose (CMC) 101 % of control

CCCCCCCCCCCCCCCC(CCCC)c1ccccc1 (configuration not stated)
inactive: dose: 100.0 mg/kg/injection, schedule: Q01DX001 (ip), vehicle: saline + alcohol 91 % of control | dose: 200.0 mg/kg/injection, schedule: Q01DX001 (ip), vehicle: saline + alcohol 100 % of control | dose: 400.0 mg/kg/injection, schedule: Q01DX001 (ip), vehicle: saline + alcohol 96 % of control

COC(=O)C1CC(=O)c2c(O)ccc(O)c2C1 (configuration not stated)
inactive: dose: 12.5 mg/kg/injection, schedule: Q04DX003 (ip), vehicle: Klucel (hydroxypropylcellulose) (HPC) 96 % of control | dose: 25.0 mg/kg/injection, schedule: Q04DX003 (ip), vehicle: Klucel (hydroxypropylcellulose) (HPC) 104 % of control | dose: 50.0 mg/kg/injection, schedule: Q04DX003 (ip), vehicle: Klucel (hydroxypropylcellulose) (HPC) 98 % of control | dose: 100.0 mg/kg/injection, schedule: Q01DX001 (ip), vehicle: Klucel (hydroxypropylcellulose) (HPC) 92 % of control | dose: 100.0 mg/kg/injection, schedule: Q04DX003 (ip), vehicle: Klucel (hydroxypropylcellulose) (HPC) 100 % of control | dose: 200.0 mg/kg/injection, schedule: Q01DX001 (ip), vehicle: Klucel (hydroxypropylcellulose) (HPC) 92 % of control | dose: 200.0 mg/kg/injection, schedule: Q04DX003 (ip), vehicle: Klucel (hydroxypropylcellulose) (HPC) 101 % of control | dose: 400.0 mg/kg/injection, schedule: Q01DX001 (ip), vehicle: Klucel (hydroxypropylcellulose) (HPC) 90 % of control | dose: 400.0 mg/kg/injection, schedule: Q04DX003 (ip), vehicle: Klucel (hydroxypropylcellulose) (HPC) 106 % of control

CS(=O)(=O)OCC#CCOS(C)(=O)=O
inactive: dose: 8.0 mg/kg/injection, schedule: Q01DX Z (ip), vehicle: saline 100 % of control | dose: 16.0 mg/kg/injection, schedule: Q01DX Z (ip), vehicle: saline 109 % of control | dose: 32.0 mg/kg/injection, schedule: Q01DX Z (ip), vehicle: saline 105 % of control | dose: 64.0 mg/kg/injection, schedule: Q01DX Z (ip), vehicle: saline 117 % of control

CCCNc1ccc(C2=NCCCN2)cc1
inactive: [1] 102 % of control

CNC(=O)CCC(NS(=O)(=O)c1ccc(C)cc1)C(=O)OC (configuration not stated)
inactive: [7] 100 % of control | [8] 94 % of control | [9] 97 % of control

CCOC(=O)NN(C(=O)OCC)c1c(N(C)NC(C)=O)nc(N)[nH]c1=O
inactive: [1] 96 % of control | [2] 86 % of control | [3] 96 % of control

CSc1nc2c(=O)[nH]cnc2n1C1OC(CO)C(O)C1O (configuration not stated)
inactive: [1] 97 % of control | [2] 111 % of control | [3] 103 % of control

N#CSCCC(c1ccccc1)(c1ccccc1)c1ccccc1
inactive: [4] 90 % of control | [5] 90 % of control | [6] 90 % of control

CCCCCC(C)n1c(C)cc(=O)n1C(C)CCCCC (configuration not stated)
inactive: dose: 75.0 mg/kg/injection, schedule: Q01DX001 (ip), vehicle: other 92 % of control | dose: 150.0 mg/kg/injection, schedule: Q01DX001 (ip), vehicle: other 97 % of control

Cc1cc(O)c(C)c(C)c1N=Nc1ccccc1
inactive: [5] 101 % of control | dose: 100.0 mg/kg/injection, schedule: Q04DX002 (ip), vehicle: saline with Tween-80 108 % of control | [6] 89 % of control | dose: 200.0 mg/kg/injection, schedule: Q04DX002 (ip), vehicle: saline with Tween-80 90 % of control | [10] 95 % of control | dose: 400.0 mg/kg/injection, schedule: Q04DX002 (ip), vehicle: saline with Tween-80 93 % of control

CC(Cl)CNC(=O)Nc1cccc2c1CCCC2 (configuration not stated)
inactive: dose: 50.0 mg/kg/injection, schedule: Q01DX001 (ip), vehicle: saline with Tween-80 103 % of control | [7] 100 % of control | [5] 96 % of control | [8] 94 % of control | [6] 95 % of control | [9] 91 % of control | [10] 90 % of control
